Results from paper PMC9730446 (Science translational medicine, 2022).

How the values were obtained:
in vivo = settings: NSG, mouse, plasma, ip, 10 mg/kg
KOPT-K1 cells [1] = format: cell-based
[2] = Cytotoxicity in CD34+ cells from healthy donors; settings: human, CD34+ cells from cord blood of healthy donors
[3] = Cytotoxicity in peripheral blood mononuclear cells; settings: human, peripheral blood mononuclear cells (PBMCs)
KOPT-K1 cells [4] = experiment: In vitro drug wash-out assay, cell growth; format: cell-based; settings: 100nM for 18 hours, then drug-free media

Compound | AUC (in vivo) | half-life (in vivo) | effect of lenalidomide on LC50 (KOPT-K1 cells [1]) | effect of CRBN deletion (CRBN^KO) on cell sensitivity (KOPT-K1 cells [1]; CRBN^KO vs CRBN^WT KOPT-K1, 72 hours) | CC50 at 72 h [2] | CC50 at 72 h [3] | time post drug removal at which cells began to recover (KOPT-K1 cells [4]) | effect on T-ALL survival and growth (KOPT-K1 cells [1]; single agent)
Cc1nc(Nc2ncc(C(=O)Nc3c(C)cccc3Cl)s2)cc(N2CCN(CCO)CC2)n1 [dasatinib] | 1400 ng·h/mL | 55.2 min | did not alter | did not alter cell sensitivity | 0.0929 µM | 0.00281 µM | 96 h | –
Nc1cccc2c1CN(C1CCC(=O)NC1=O)C2=O (centres unmarked) [lenalidomide] | – | – | – | – | – | – | – | no effect
